Measurements: patent US7081473B2, “Agent for preventing/ameliorating obesity comprising methylidene hydrizide compound as active ingredient” (Sanwa Kagaku Kenkyusho Co., Ltd., priority 2002, dated 2006)

Assays:
human GIP receptor = molecular target: T1, human GIP receptor (Homo sapiens, UniProt P48546); assay: Inhibition of cAMP production by GIP stimulation in human GIP receptor-expressing CHO cells; format: cell-based; settings: for IC50: 100 pM GIP, 37° C., 30 minutes, human GIP receptor-expressing CHO cells, read-out: IC50 (concentration of the compound at which the production of cAMP by GIP is inhibited by 50%)
T1 construct: expressed in transfected cells; host or cells: CHO cells
T1 sequence (P48546 22-466): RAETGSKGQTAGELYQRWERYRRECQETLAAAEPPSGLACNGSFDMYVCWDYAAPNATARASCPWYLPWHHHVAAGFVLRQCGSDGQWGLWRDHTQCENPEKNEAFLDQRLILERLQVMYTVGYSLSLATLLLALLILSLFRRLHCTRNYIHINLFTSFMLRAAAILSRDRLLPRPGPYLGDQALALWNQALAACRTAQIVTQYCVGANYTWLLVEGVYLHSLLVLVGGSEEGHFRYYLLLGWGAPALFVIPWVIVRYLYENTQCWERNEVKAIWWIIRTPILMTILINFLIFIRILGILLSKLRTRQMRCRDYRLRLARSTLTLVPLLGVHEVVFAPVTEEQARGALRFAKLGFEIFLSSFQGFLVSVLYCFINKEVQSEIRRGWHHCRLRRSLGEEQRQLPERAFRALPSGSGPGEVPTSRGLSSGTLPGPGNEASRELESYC
Source text: The system for evaluation of GIP function inhibitors (GIP receptor antagonists and the like) made use of the following method wherein their inhibitory activity on production of cAMP as GIP intracellular transmitter was used as an indicator.
According to a method of Kubota et al. (Diabetes 45: 1701–1705, 1996), human GIP receptor-expressing cells prepared by introducing GIP cDNA into CHO cells were used. First, cAMP was produced by stimulation with 100 pM GIP in the presence/absence of the test chemical at 37° C. for 30 minutes in phosphate-buffered saline, pH 7.4, containing 1 mM isobutylmethylxanthine, 5.6 mM glucose and 0.5% bovine serum albumin. Then, using a cAMP assay system (PE Biosystems), the cells were lyzed with an attached lysis buffer, the amount of cAMP accumulated in the cells was measured, and the inhibitory activity of the test sample on the functions of GIP was determined. To verify the action of the test sample completely irrelevant to the action on GIP receptor, the inhibitory effect of the test sample on formation of cAMP upon stimulating, with 5 μM forskolin, CHO cells into which the GIP receptor gene had not been introduced (cells not expressing the GIP receptor) was also confirmed. The inhibitory activity was expressed in terms of IC50 (concentration of the compound at which the production of cAMP by GIP is inhibited by 50%). A compound not showing any inhibitory activity on formation of cAMP in the cells not expressing the GIP receptor, but inhibiting the formation of cAMP by stimulation with GIP, in the cells expressing the GIP receptor, was regarded as an active compound.

GIP = settings: disclosed in WO 01/87341; read-out: IC50 (inhibiting the functions of GIP); cited from earlier work

SMILES	IC50 (human GIP receptor)	inhibition of cAMP formation upon stimulation with GIP (functions of GIP) (human GIP receptor; cells expressing the GIP receptor, result in words)	IC50 (GIP)
O=C(N/N=C/c1ccc2c(ccn2Cc2ccc(Cl)s2)c1)c1ccc(O)c(Cl)c1 [Compound 4, 3-Chloro-4-hydroxybenzoic acid [1-(5-chlorothiophen-2-ylmethyl)-1H-indol-5-yl]methylidene hydrazide]	440 nM		
Cc1cc(O)n2nc(-c3ccccc3)c(Br)c2n1 [3-bromo-5-methyl-2-phenylpyrazolo[1,5-a]pyrimidin-7-ol]			~40000 nM

Further compounds by falling IC50 (human GIP receptor), results first:

IC50 (human GIP receptor)	SMILES	inhibition of cAMP formation upon stimulation with GIP (functions of GIP) (human GIP receptor; cells expressing the GIP receptor, result in words)	IC50 (GIP)
19000 nM	O=C(N/N=C/c1ccccc1Br)c1ccc(O)cc1 [Compound 1]	inhibited the functions of GIP though at low levels	
560 nM	COc1ccc(/C=N/NC(=O)c2ccc(O)c(Cl)c2)c2ccccc12 [Compound 3, 3-Chloro-4-hydroxybenzoic acid (4-methoxynaphthalen-1-yl)methylidene hydrazide]		
6.3 nM	Cc1cc(C)c(C)c(Cn2ccc3c(/C=N/NC(=O)c4ccc(O)c(C#N)c4)cccc32)c1C [Compound 2, 3-Cyano-4-hydroxybenzoic acid [1-(2,3,5,6-tetramethylbenzyl)indol-4-yl]methylidene hydrazide]		
